Read-outs that look alike come from different tables or passages of the source.
Legend:
[1] = test system: P. aeruginosa CDC-0110; test: microbe, parasite or virus in culture; format: cell-based; conditions: Pseudomonas aeruginosa, CDC0110, read-out: Minimum inhibitory concentration, P. aeruginosa CDC-0110
[2] = test system: B. pseudomallei Bp82; test: microbe, parasite or virus in culture; format: cell-based; conditions: Burkholderia pseudomallei, BP82, read-out: Minimum inhibitory concentration, B. pseudomallei Bp82
[3] = target: T1, A. baumannii PBP1a (Acinetobacter baumannii, UniProt A0ABX6CK30); test: Bocillin-FL competition binding via gel filtration, A. baumannii PBP1a
T1 sequence (A0ABX6CK30 1-851): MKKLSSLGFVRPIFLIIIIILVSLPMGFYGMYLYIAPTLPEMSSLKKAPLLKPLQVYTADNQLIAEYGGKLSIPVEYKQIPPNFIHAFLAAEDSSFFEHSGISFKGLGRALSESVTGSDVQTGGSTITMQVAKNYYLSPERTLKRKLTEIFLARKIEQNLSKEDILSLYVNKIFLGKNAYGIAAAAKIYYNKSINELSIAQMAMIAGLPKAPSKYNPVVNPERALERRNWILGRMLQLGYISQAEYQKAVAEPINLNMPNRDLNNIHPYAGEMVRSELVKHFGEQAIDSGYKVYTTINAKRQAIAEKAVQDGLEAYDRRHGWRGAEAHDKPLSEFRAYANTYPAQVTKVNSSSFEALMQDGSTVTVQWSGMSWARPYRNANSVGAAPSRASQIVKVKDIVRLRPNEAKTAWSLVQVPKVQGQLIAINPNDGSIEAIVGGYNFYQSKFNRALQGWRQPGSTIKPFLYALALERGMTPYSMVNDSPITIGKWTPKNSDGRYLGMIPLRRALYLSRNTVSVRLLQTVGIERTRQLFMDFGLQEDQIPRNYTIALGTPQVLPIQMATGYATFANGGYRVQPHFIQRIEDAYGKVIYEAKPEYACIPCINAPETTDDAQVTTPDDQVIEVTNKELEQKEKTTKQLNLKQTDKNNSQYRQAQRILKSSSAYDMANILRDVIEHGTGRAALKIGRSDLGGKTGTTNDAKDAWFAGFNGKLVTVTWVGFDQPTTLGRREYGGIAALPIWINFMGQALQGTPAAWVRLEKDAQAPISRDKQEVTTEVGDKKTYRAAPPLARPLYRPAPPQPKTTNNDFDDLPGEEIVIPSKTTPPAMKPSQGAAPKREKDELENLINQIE
How it was run: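 Competitive equilibrium binding with Bocillin-FL reporter: PBP pre-incubated with inhibitor dilutions, Bocillin-FL added, 15 min incubation. Labelled enzyme isolated by size-exclusion spin plates, fluorescence measured; EC50 obtained by fitting bound fraction against inhibitor concentration with a Hill-coefficient model.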

[4] = test system: P. aeruginosa ATCC 27853; test: microbe, parasite or virus in culture; format: cell-based; conditions: Pseudomonas aeruginosa, ATCC27853, read-out: MIC P. aeruginosa ATCC 27853
[5] = test system: E. coli AG100A; test: Broth microdilution MIC in CAMHB; format: cell-based; conditions: Escherichia coli, read-out: MIC E. coli AG100A
[6] = competition binding assay using Bocillin-FL via gel filtration, read-out: A. baumannii PBP1a Potency

O=C(O)c1c(F)ccc2c1OB(O)[C@@H](NC(=O)[C@H](NC(=O)N1CCN(C3CCN(C(=O)c4cc(F)c(O)c(O)c4Cl)CC3)C1=O)c1ccc(P(=O)(O)O)cc1)C2 (single isomer, unassigned) [Example 495]
MIC [1]: < 1 µg/mL | MIC [2]: < 1 µg/mL | EC50 [3, 6]: < 10 µM

O=C(O)c1c(F)ccc2c1OB(O)[C@@H](NC(=O)[C@H](NC(=O)N1CCN(C3CCN(C(=O)Nc4ccc(O)c(O)c4Cl)CC3)C1=O)c1ccc(P(=O)(O)O)cc1)C2 (single isomer, unassigned) [Example 497]
MIC [1]: < 1 µg/mL | MIC [2]: < 1 µg/mL | EC50 [3, 6]: < 10 µM

O=C(O)c1c(F)ccc2c1OB(O)[C@@H](NC(=O)[C@H](NC(=O)N1CCN(C3CCN(C(=O)Nc4cc(F)c(O)c(O)c4Cl)CC3)C1=O)c1ccc(P(=O)(O)O)cc1)C2 (single isomer, unassigned) [Example 500]
MIC [1]: < 1 µg/mL | MIC [2]: < 1 µg/mL | EC50 [3, 6]: < 10 µM

O=C(O)c1c(F)ccc2c1OB(O)[C@@H](NC(=O)[C@H](NC(=O)N1CCN(C3CCN(C(=O)Nc4cc(F)c(F)c(O)c4F)CC3)C(=O)C1=O)c1cc(F)c(O)c(O)c1Cl)C2 [Example 491, (R)-3-((R)-2-(2-chloro-5-fluoro-3,4-dihydroxyphenyl)-2-(2,3-dioxo-4-(1-((2,4,5-trifluoro-3-hydroxyphenyl)carbamoyl)piperidin-4-yl)piperazine-1-carboxamido)acetamido)-7-fluoro-2-hydroxy-3,4-dihydro-2H-benzo[e][1,2]oxaborinine-8-carboxylic acid]
MIC [1]: < 1 µg/mL | EC50 [3, 6]: < 10 µM

O=C(O)c1c(F)ccc2c1OB(O)[C@@H](NC(=O)[C@H](NC(=O)N1CCN(C3CCN(Cc4cccnc4)CC3)C1=O)c1cc(F)c(O)c(O)c1Cl)C2 [Example 492, (R)-3-((R)-2-(2-chloro-5-fluoro-3,4-dihydroxyphenyl)-2-(2-oxo-3-(1-(pyridin-3-ylmethyl)piperidin-4-yl)imidazolidine-1-carboxamido)acetamido)-7-fluoro-2-hydroxy-3,4-dihydro-2H-benzo[e][1,2]oxaborinine-8-carboxylic acid]
MIC [1]: < 1 µg/mL | EC50 [3]: < 10 µM

O=C(O)c1c(F)ccc2c1OB(O)[C@@H](NC(=O)[C@H](NC(=O)N1CCN(C3CCN(Cc4ccncc4)CC3)C1=O)c1cc(F)c(O)c(O)c1Cl)C2 [Example 493, (R)-3-((R)-2-(2-chloro-5-fluoro-3,4-dihydroxyphenyl)-2-(2-oxo-3-(1-(pyridin-4-ylmethyl)piperidin-4-yl)imidazolidine-1-carboxamido)acetamido)-7-fluoro-2-hydroxy-3,4-dihydro-2H-benzo[e][1,2]oxaborinine-8-carboxylic acid]
MIC [1]: < 1 µg/mL | EC50 [3, 6]: < 10 µM

O=C(O)c1c(F)ccc2c1OB(O)[C@@H](NC(=O)[C@H](NC(=O)N1CCN(C3CCN(C(=O)c4ccc(O)c(O)c4Cl)CC3)C1=O)c1ccc(P(=O)(O)O)cc1)C2 [Example 494, (R)-3-((R)-2-(3-(1-(2-chloro-3,4-dihydroxybenzoyl)piperidin-4-yl)-2-oxoimidazolidine-1-carboxamido)-2-(4-phosphonophenyl)acetamido)-7-fluoro-2-hydroxy-3,4-dihydro-2H-benzo[e][1,2]oxaborinine-8-carboxylic acid]
MIC [1]: < 1 µg/mL | MIC [2]: < 1 µg/mL | EC50 [3, 6]: 50 to 250 µM

O=C(O)c1c(F)ccc2c1OB(O)[C@@H](NC(=O)[C@H](NC(=O)N1CCN(C3CCN(C(=O)c4cc(O)c(O)c(Cl)c4)CC3)C1=O)c1ccc(P(=O)(O)O)cc1)C2 [Example 496, (R)-3-((R)-2-(3-(1-(3-chloro-4,5-dihydroxybenzoyl)piperidin-4-yl)-2-oxoimidazolidine-1-carboxamido)-2-(4-phosphonophenyl)acetamido)-7-fluoro-2-hydroxy-3,4-dihydro-2H-benzo[e][1,2]oxaborinine-8-carboxylic acid]
MIC [1]: < 1 µg/mL | MIC [2]: < 1 µg/mL | EC50 [3, 6]: < 10 µM

O=C(O)c1c(F)ccc2c1OB(O)[C@@H](NC(=O)[C@H](NC(=O)N1CCN(Cc3ccc(O)c(O)c3Cl)C(=O)C1=O)c1cc(F)c(P(=O)(O)O)c(F)c1)C2 [Example 502, (R)-3-((R)-2-(4-(2-chloro-3,4-dihydroxybenzyl)-2,3-dioxopiperazine-1-carboxamido)-2-(3,5-difluoro-4-phosphonophenyl)acetamido)-7-fluoro-2-hydroxy-3,4-dihydro-2H-benzo[e][1,2]oxaborinine-8-carboxylic acid]
MIC [1]: < 1 µg/mL | MIC [2]: < 1 µg/mL | EC50 [3, 6]: 10 to 50 µM

O=C(NCCN1CCN(C(=O)N[C@@H](C(=O)N[C@H]2Cc3ccc(F)c(C(=O)O)c3OB2O)c2ccc(P(=O)(O)O)cc2)C(=O)C1=O)c1ccc(O)c(O)c1Cl [Example 503, (R)-3-((R)-2-(4-(2-(2-chloro-3,4-dihydroxybenzamido)ethyl)-2,3-dioxopiperazine-1-carboxamido)-2-(4-phosphonophenyl)acetamido)-7-fluoro-2-hydroxy-3,4-dihydro-2H-benzo[e][1,2]oxaborinine-8-carboxylic acid]
MIC [1]: < 1 µg/mL | MIC [2]: < 1 µg/mL | EC50 [3, 6]: 10 to 50 µM

O=C(O)c1cccc2c1OB(O)[C@@H](NC(=O)[C@H](NC(=O)N1CCN(Cc3cc(F)c(O)c(O)c3Cl)C(=O)C1=O)c1ccc(P(=O)(O)O)cc1)C2 [Example 504, (R)-3-((R)-2-(4-(2-chloro-5-fluoro-3,4-dihydroxybenzyl)-2,3-dioxopiperazine-1-carboxamido)-2-(4-phosphonophenyl)acetamido)-2-hydroxy-3,4-dihydro-2H-benzo[e][1,2]oxaborinine-8-carboxylic acid]
MIC [4]: < 1 µg/mL | MIC [1]: < 1 µg/mL | MIC [5]: < 1 µg/mL | EC50 [3, 6]: < 10 µM

O=C(O)c1c(F)ccc2c1OB(O)[C@@H](NC(=O)C(NC(=O)N1CCN(S(=O)(=O)c3ccc(O)c(O)c3Cl)C1=O)c1ccc(P(=O)(O)O)cc1)C2 (stereo partly drawn) [Example 505, (3R)-3-(2-(3-((2-chloro-3,4-dihydroxyphenyl)sulfonyl)-2-oxoimidazolidine-1-carboxamido)-2-(4-phosphonophenyl)acetamido)-7-fluoro-2-hydroxy-3,4-dihydro-2H-benzo[e][1,2]oxaborinine-8-carboxylic acid]
MIC [4]: < 1 µg/mL | MIC [1]: < 1 µg/mL | MIC [2]: < 1 µg/mL | MIC [5]: < 1 µg/mL | EC50 [3, 6]: < 10 µM

O=C(O)c1c(F)ccc2c1OB(O)[C@@H](NC(=O)[C@H](NC(=O)N1CCN(S(=O)(=O)c3ccc(O)c(O)c3Cl)C1=O)c1ccc(P(=O)(O)O)cc1)C2 [Example 506, (R)-3-((R)-2-(3-((2-chloro-3,4-dihydroxyphenyl)sulfonyl)-2-oxoimidazolidine-1-carboxamido)-2-(4-phosphonophenyl)acetamido)-7-fluoro-2-hydroxy-3,4-dihydro-2H-benzo[e][1,2]oxaborinine-8-carboxylic acid]
MIC [4]: < 1 µg/mL | MIC [1]: < 1 µg/mL | MIC [2]: < 1 µg/mL | MIC [5]: < 1 µg/mL

O=C(O)c1cccc2c1OB(O)[C@@H](NC(=O)[C@H](NC(=O)N1CCN(S(=O)(=O)c3ccc(O)c(O)c3Cl)C1=O)c1ccc(P(=O)(O)O)cc1)C2 [Example 509, (R)-3-((R)-2-(3-((2-chloro-3,4-dihydroxyphenyl)sulfonyl)-2-oxoimidazolidine-1-carboxamido)-2-(4-phosphonophenyl)acetamido)-2-hydroxy-3,4-dihydro-2H-benzo[e][1,2]oxaborinine-8-carboxylic acid]
MIC [4]: < 1 µg/mL | MIC [1]: < 1 µg/mL | MIC [2]: < 1 µg/mL | MIC [5]: < 1 µg/mL

From patent US20240270762A1, “PENICILLIN-BINDING PROTEIN INHIBITORS” (priority 2021, published 2024)
